Assay results taken from patent US20240083857A1, “2-Methyl-Quinazolines” (Bayer Pharma Aktiengesellschaft, priority 2017, published 2024).

Experiments:
[1] = molecular target: K-Ras^G12C : hSOS1 interaction (Homo sapiens, UniProt Q07889); assay: Biochemical assay 1: K-Ras^G12C interaction assay with hSOS1 (HTRF); format: binding; conditions: read-out: Assay 1 (KRAS-SOS Interaction) activity expressed as IC50
[2] = molecular target: human SOS1 (nucleotide exchange of K-Ras^G12C) (Homo sapiens, UniProt Q07889); assay: Biochemical assay 2: K-Ras^G12C activation assay by hSOS1 at high GTP concentration (HTRF); conditions: high GTP; for IC50: read-out: Assay 2 (KRAS-Activation by SOS high GTP) activity expressed as IC50

SMILES	IC50 [1]	IC50 [2]	inhibition at 20 µM ([2]; read-out: Assay 2 (KRAS-Activation by SOS high GTP) activity expressed as % inhibition at 20 μM, at 20 μM)
COc1cc2nc(C)nc(N[C@H](C)c3cccc(C4=CCN(C)CC4)c3)c2cc1OC [Example 202, 6,7-dimethoxy-2-methyl-N-{(1R)-1-[3-(1-methyl-1,2,3,6-tetrahydropyridin-4-yl)phenyl]ethyl}quinazolin-4-amine]	1420 nM	979 nM	–
C=C(C)c1ccc([C@@H](C)Nc2nc(C)nc3cc(OC)c(OC)cc23)cc1 [Example 203, 6,7-dimethoxy-2-methyl-N-{(1R)-1-[4-(prop-1-en-2-yl)phenyl]ethyl}quinazolin-4-amine]	1370 nM	1380 nM	–
COc1cc2nc(C)nc(N[C@H](C)c3cccc(C4CC4)c3)c2cc1OC [Example 204, N-[(1R)-1-(3-cyclopropylphenyl)ethyl]-6,7-dimethoxy-2-methylquinazolin-4-amine]	229 nM	265 nM	–
COc1cc2nc(C)nc(NC(C)c3cccc4sccc34)c2cc1OC (stereo not shown) [Example 205, N-[1-(1-benzothiophen-4-yl)ethyl]-6,7-dimethoxy-2-methylquinazolin-4-amine]	73.8 nM	87.2 nM	–
COc1cc2nc(C)nc(N[C@H](C)c3ccccc3)c2cc1OC [Example 206, 6,7-dimethoxy-2-methyl-N-[(1R)-1-phenylethyl]quinazolin-4-amine]	481 nM	1000 nM	–
COc1cc2nc(C)nc(NC(C)c3cccs3)c2cc1OC (stereo not shown) [Example 207, 6,7-dimethoxy-2-methyl-N-[1-(thiophen-2-yl)ethyl]quinazolin-4-amine]	2730 nM	2270 nM	–
COc1cc2nc(C)nc(NC(C)c3ccc(-c4ccccc4CN4CCC(O)C4)s3)c2cc1OC (stereo not shown) [Example 210, 1-[2-(5-{1-[(6,7-dimethoxy-2-methylquinazolin-4-yl)amino]ethyl}thiophen-2-yl)benzyl]pyrrolidin-3-ol]	38.5 nM	109 nM	–
COc1cc2nc(C)nc(NC(C)c3ccc(-c4ccccc4CN4CC[C@H](F)C4)s3)c2cc1OC (stereo partly drawn) [Example 211, N-{1-[5-(2-{[(3S)-3-fluoropyrrolidin-1-yl]methyl}phenyl)thiophen-2-yl]ethyl}-6,7-dimethoxy-2-methylquinazolin-4-amine]	133 nM	292 nM	–
COc1cc2nc(C)nc(NC(C)c3ccc(-c4ccccc4)o3)c2cc1OC (stereo not shown) [Example 213, 6,7-dimethoxy-2-methyl-N-[1-(5-phenylfuran-2-yl)ethyl]quinazolin-4-amine]	6760 nM	6310 nM	–
COc1cc2nc(C)nc(NC(C)c3cc(Br)cc4c3OCC4)c2cc1OC (stereo not shown) [Example 214, N-[1-(5-bromo-2,3-dihydro-1-benzofuran-7-yl)ethyl]-6,7-dimethoxy-2-methylquinazolin-4-amine]	3330 nM	3960 nM	–
COc1cc2nc(C)nc(NC(C)c3cccc(Oc4ccccc4)c3)c2cc1OC (stereo not shown) [Example 215, 6,7-dimethoxy-2-methyl-N-[1-(3-phenoxyphenyl)ethyl]quinazolin-4-amine]	906 nM	1160 nM	–
COc1cc2nc(C)nc(NC(C)c3cccc(-c4nn[nH]n4)c3)c2cc1OC (stereo not shown) [Example 216, 6,7-dimethoxy-2-methyl-N-{1-[3-(2H-tetrazol-5-yl)phenyl]ethyl}quinazolin-4-amine]	6580 nM	17000 nM	–
COc1cc2nc(C)nc(NC(C)c3cccc4cccnc34)c2cc1OC (stereo not shown) [Example 217, 6,7-dimethoxy-2-methyl-N-[1-(quinolin-8-yl)ethyl]quinazolin-4-amine]	8800 nM	–	50%
COc1cc2nc(C)nc(NC(C)c3ccc(-c4cnn(CCO)c4)s3)c2cc1OC (stereo not shown) [Example 218, 2-[4-(5-{1-[(6,7-dimethoxy-2-methylquinazolin-4-yl)amino]ethyl}thiophen-2-yl)-1H-pyrazol-1-yl]ethanol]	1960 nM	1370 nM	–
COc1cc2nc(C)nc(NC(C)c3ccc(-c4cnc5n4CCC5)s3)c2cc1OC (stereo not shown) [Example 219, N-{1-[5-(6,7-dihydro-5H-pyrrolo[1,2-a]imidazol-3-yl)thiophen-2-yl]ethyl}-6,7-dimethoxy-2-methylquinazolin-4-amine]	415 nM	570 nM	–
COc1cc2nc(C)nc(NC(C)c3ccc(-c4cnn(CCN5CCCC5)c4)s3)c2cc1OC (stereo not shown) [Example 220, 6,7-dimethoxy-2-methyl-N-[1-(5-{1-[2-(pyrrolidin-1-yl)ethyl]-1H-pyrazol-4-yl}thiophen-2-yl)ethyl]quinazolin-4-amine]	379 nM	381 nM	–
COc1cc2nc(C)nc(NC(C)c3ccc(-c4cnn(C5CCCC5)c4)s3)c2cc1OC (stereo not shown) [Example 221, N-{1-[5-(1-cyclopentyl-1H-pyrazol-4-yl)thiophen-2-yl]ethyl}-6,7-dimethoxy-2-methylquinazolin-4-amine]	3060 nM	4650 nM	–
COc1cc2nc(C)nc(NC(C)c3ccc(-c4cc[nH]n4)s3)c2cc1OC (stereo not shown) [Example 222, 6,7-dimethoxy-2-methyl-N-{1-[5-(1H-pyrazol-3-yl)thiophen-2-yl]ethyl}quinazolin-4-amine]	3880 nM	4440 nM	–

SMILES	IC50 [1]	IC50 [2]	inhibition at 20 µM ([2]; read-out: Assay 2 (KRAS-Activation by SOS high GTP) activity expressed as % inhibition at 20 μM, at 20 μM)
COc1cc2nc(C)nc(NC(C)c3ccc(-c4ccccc4CN4CCC(F)(F)C4)s3)c2cc1OC (stereo not shown) [Example 223, N-[1-(5-{2-[(3,3-difluoropyrrolidin-1-yl)methyl]phenyl}thiophen-2-yl)ethyl]-6,7-dimethoxy-2-methylquinazolin-4-amine]	2110 nM	5600 nM	–
COc1cc2nc(C)nc(NC(C)c3ccc4nsnc4c3)c2cc1OC (stereo not shown) [Example 229, N-[1-(2,1,3-benzothiadiazol-5-yl)ethyl]-6,7-dimethoxy-2-methylquinazolin-4-amine]	6950 nM	7820 nM	–
CCOc1ccccc1-c1ccc(C(C)Nc2nc(C)nc3cc(OC)c(OC)cc23)s1 (stereo not shown) [Example 232, N-{1-[5-(2-ethoxyphenyl)thiophen-2-yl]ethyl}-6,7-dimethoxy-2-methylquinazolin-4-amine]	9010 nM	9290 nM	–
COc1cc2nc(C)nc(NC(C)c3ccc(-c4ccc(F)c5ccccc45)s3)c2cc1OC (stereo not shown) [Example 233, N-{1-[5-(4-fluoronaphthalen-1-yl)thiophen-2-yl]ethyl}-6,7-dimethoxy-2-methylquinazolin-4-amine]	10400 nM	2000 nM	–
COc1cc2nc(C)nc(NC(C)c3ccc(-c4ccc(F)cc4CN)s3)c2cc1OC (stereo not shown) [Example 234, N-[1-{5-[2-(aminomethyl)-4-fluorophenyl]thiophen-2-yl}ethyl]-6,7-dimethoxy-2-methylquinazolin-4-amine]	75.6 nM	65.4 nM	–
COc1cc2nc(C)nc(NC(C)c3ccc(C4=CCOCC4)s3)c2cc1OC (stereo not shown) [Example 235, N-{1-[5-(3,6-dihydro-2H-pyran-4-yl)thiophen-2-yl]ethyl}-6,7-dimethoxy-2-methylquinazolin-4-amine]	5470 nM	4720 nM	–
COc1cc2nc(C)nc(NC(C)c3ccc(-c4ccccc4CN4CCC(N(C)C)C4)s3)c2cc1OC (stereo not shown) [Example 238, N-{1-[5-(2-{[3-(dimethylamino)pyrrolidin-1-yl]methyl}phenyl)thiophen-2-yl]ethyl}-6,7-dimethoxy-2-methylquinazolin-4-amine]	81.6 nM	217 nM	–
COc1cc2nc(C)nc(NC(C)c3csc(Br)c3)c2cc1OC (stereo not shown) [Example 239, N-[1-(5-bromothiophen-3-yl)ethyl]-6,7-dimethoxy-2-methylquinazolin-4-amine]	7070 nM	3830 nM	–
COc1cc2nc(C)nc(NC(C)c3ccc(-c4ccccc4C(N)=O)s3)c2cc1OC (stereo not shown) [Example 240, 2-(5-{1-[(6,7-dimethoxy-2-methylquinazolin-4-yl)amino]ethyl}thiophen-2-yl)benzamide]	3210 nM	3190 nM	–
COc1cc2nc(C)nc(NC(C)c3ccc(-c4cccc(C(N)=O)c4)s3)c2cc1OC (stereo not shown) [Example 241, 3-(5-{1-[(6,7-dimethoxy-2-methylquinazolin-4-yl)amino]ethyl}thiophen-2-yl)benzamide]	1120 nM	1440 nM	–
COc1cc2nc(C)nc(NC(C)c3ccc(-c4ccc(C(N)=O)cc4)s3)c2cc1OC (stereo not shown) [Example 242, 4-(5-{1-[(6,7-dimethoxy-2-methylquinazolin-4-yl)amino]ethyl}thiophen-2-yl)benzamide]	1830 nM	1500 nM	–
COc1cc2nc(C)nc(NC(C)c3ccc(-c4ccccc4N)s3)c2cc1OC (stereo not shown) [Example 243, N-{1-[5-(2-aminophenyl)thiophen-2-yl]ethyl}-6,7-dimethoxy-2-methylquinazolin-4-amine]	252 nM	325 nM	–
COc1cc2nc(C)nc(NC(C)c3ccc(-c4ccccc4CO)s3)c2cc1OC (stereo not shown) [Example 244, [2-(5-{1-[(6,7-dimethoxy-2-methylquinazolin-4-yl)amino]ethyl}thiophen-2-yl)phenyl]methanol]	282 nM	401 nM	–
COc1cc2nc(C)nc(NC(C)c3ccc(-c4ccccc4C#N)s3)c2cc1OC (stereo not shown) [Example 245, 2-(5-{1-[(6,7-dimethoxy-2-methylquinazolin-4-yl)amino]ethyl}thiophen-2-yl)benzonitrile]	592 nM	900 nM	–
COc1cc2nc(C)nc(NC(C)c3ccc(-c4cccc5cn[nH]c45)s3)c2cc1OC (stereo not shown) [Example 246, N-{1-[5-(1H-indazol-7-yl)thiophen-2-yl]ethyl}-6,7-dimethoxy-2-methylquinazolin-4-amine]	7590 nM	4210 nM	–
COc1cc2nc(C)nc(NC(C)c3ccc(-c4cccc5[nH]ncc45)s3)c2cc1OC (stereo not shown) [Example 247, N-{1-[5-(1H-indazol-4-yl)thiophen-2-yl]ethyl}-6,7-dimethoxy-2-methylquinazolin-4-amine]	591 nM	867 nM	–
C=Cc1ccccc1-c1ccc(C(C)Nc2nc(C)nc3cc(OC)c(OC)cc23)s1 (stereo not shown) [Example 248, N-{1-[5-(2-ethenylphenyl)thiophen-2-yl]ethyl}-6,7-dimethoxy-2-methylquinazolin-4-amine]	1490 nM	8080 nM	–
